Here are results for one substance from patent US20040126359A1, “Hedgehog” (priority 2001, published 2004).

The subject of one assay is Gli2-/Gli3- mice cells. As to the kind of experiment: Cell cycle / survival analysis in Gli2-/Gli3- mice cells. It counts as cell-based, mouse. The following applies: Shh 10 and 500 ng/ml. The method, then:
Cell survival was measured in Gli2^−/Gli3^− mice cells (i.e. from mice in which one allele each of Gli2 and Gli3 were deleted from the genome) in the presence (10 ng/ml and 500 ng/ml) and absence of Shh;
The CD4^+ T-cells were cultured as above in 48-well plates with and without addition of exogenous Shh or 5E1. At 72 hr post-activation, the cells were spun at 13,000 rpm for 7 min then re-suspended in citrate buffer. Cell cycle analysis was carried out using the Vindelov method (Vindelov et al, 1990). Briefly, the cells were trypsinized (Sigma) to expose the nucleus before being stained with propidium iodide (Sigma). Cell cycle analysis was then performed on an Epics© XL flow cytometer (Beckman Coulter UK Ltd, Bucks, UK). The machine counted 30,000 nuclei in each sample and the software analysed the % of cells in each stage of the cell cycle sub-G1, G1, S phase and G2/M. From these figures, the % of live cells (G1, S and G2/M) was calculated, and from this, the % of live cells in G1 and S/G2 phases.

Assay [1] relates to CD4+ T-cells. As to the kind of experiment: Two-colour FACS analysis of CD69 and CD25 expression. It is filed as cell-based. Conditions: CD4+ T-cells activated 72 hours with anti-CD3 and anti-CD28, Shh 100 ng/ml. A general note: A flow cytometer gives signals particle by particle.
The subject of assay [2] is CD4+ T-cells. The experiment in a line: Real time PCR of Shh, ptc, Gli1 and bcl-2 transcripts in sub-optimally activated CD4+ T-cells. It is filed as cell-based, mouse. The method, then: CD4^+ T-cells were cultured as above in 48 well plates with and without addition of exogenous Shh or 5E1. At various time points (24 hr, 48 hr, 72 hr) post-activation, the CD4^+ T-cells were spun at 300 g for 7 mins then resuspended in lysis buffer provided as part of the RNeasy kit used for the RNA isolation (Qiagen Ltd, Crawley, UK). Any contaminating DNA was then digested by treating the RNA with DnaseI (Life Technologies) according to the manufacturer's instructions. In order to check that no contaminating DNA remained, a PCR was carried out using genomic β-actin primers (forward primer 5′-CCACCAACTGGGACACATG-3′ (SEQ ID NO:10) and reverse primer 5′-[…]-3′ (SEQ ID NO:11)) (MWG-Biotech AG). The PCR program was as follows: 35 cycles of 30 secs at 94° C., 1 min at 58° C., 2 mins at 72° C. followed by a 5 min 72° C. extension then 4° C. hold. This was carried out on a PTC-200 Peltier thermal cycler (MJ Research Inc., Massachusetts, USA).
Unless otherwise stated all materials for real time PCR were supplied by Applied Biosytems UK, Cheshire, UK. 400 ng of RNA was reverse transcribed using the Multiscribe RT kit. Samples were incubated for 10 min at 25° C., 40mins at 48° C. then 5 min at 95° C. to allow the reverse transcription to take place. cDNA samples were then diluted 1:5 in nuclease-free water (Promega). The PCR step was carried out using Taqman Universal PCR Mastermix, a primer/probe mix specific to the gene of interest and a primer/probe mix specific to 18s rRNA control reagent. The following primer/probe sequences were used:
These probes were all labelled with the fluorescent dye fam (6-carboxy-fluorescein). The primer/probe mix for 18S was supplied by Applied Biosystems which was labelled with the fluorescent dye vic™. Each cDNA sample was run in duplicate 25 μl volumes on a capped 96-well optical reaction plate. The plate was run in the ABI Prism 7700 sequence detector using SDS software. The PCR conditions were as follows: 50° C. for 2 min, 95° C. for 10 min then 40 cycles of 15 sec at 95° C. and 1 min at 60° C. The software then analysed the data and output a pair of ‘ct’ values for each sample. ‘Ct’ is the number of cycles needed to result in a signal crossing a set threshold. Each sample yielded two ct values, one for the gene of interest and one for the 18S house keeping control. The ct values were then transported to a Microsoft Excel spreadsheet and analysed to give a value representing the relative mRNA levels present for the gene of interest linearly as per the manufacturers instructions.
In order to analyse the mechanisms of Shh amplification of TCR mediated activation in CD4^+ T-cells, the kinetics of expression of components of the Shh signalling pathway and bcl-2 were analysed in activated CD4^+ T-cells in the presence and absence of exogenous Shh. CD4^+ T-cell cultures were set up as before, sub-optimally activated with anti-CD3/CD28 and Shh was added at t=0. RNA was extracted at 24, 48 and 72 hr post-activation. It has been reported that a 2× or greater increase in the transcription of any gene on at least 2 occasions is considered to be significant (Chtanova et al and Granucci et al).
(In general: In qPCR the cycle at which signal appears reflects the starting amount.)

The subject of assay [3] is mouse spleen cells and purified CD4+ T-cells. As to the kind of experiment: Survival in culture by Trypan blue staining. It is filed as cell-based. The following applies: no activation; Shh 10 and 100 ng/ml; 4 day time frame. The method, then:
Survival was measured by Trypan blue staining of dead and alive cells in culture;
Cells cultured in medium without Shh were used as controls;

In assay [4] the test system is CD4+ T-cells. The experiment in a line: Taqman real time PCR of Shh, Ihh, HIP and Ptc expression in CD4+ T-cells (FIGS. 14, 15, 17). It is filed as cell-based. The method, then: Expression in medium, in the presence of 50 ng/ml IL-10 and in the presence of 50 ng/ml IFN-γ was compared to expression in resting CD4+ T-cells;
Similar experiments were used to study the expression of Shh (FIG. 4) and Ptc (FIG. 5) in T-cells and the expression of components of the Hh signalling pathway in lymphoid tissues (FIG. 6). FIG. 14 illustrates the results of an RT-PCR analysis of Shh, Ihh, Hip and Ptc expression. Activation of T-cells induced a sustained and marked (approximately 80-fold) increase in Shh mRNA, peaking at 44 and 72 hours. It lead to a downregulation of Ptc.

A further assay relates to human CD4 T-cells. The experiment in a line: Proliferation of human CD4 T-cells cultured with Shh N-terminal active peptide (3H thymidine). It counts as cell-based. The following applies: activated CD4+ T-cells; dose dependent.
[5] abbreviates: Shh peptide at t=0, 24, 48, 72 hr.
The mark [6] stands for this setting: Shh added to activated T-cell cultures.

Take “Shh peptide: Recombinant mouse Shh amino-terminal peptide (R&D systems); biologically active N-terminal Sonic hedgehog fragment”: the “effect on survival / apoptosis (live cells, sub-G1 pool)” value in the assay with Gli2-/Gli3- mice cells was “promotes apoptosis”. The “CD25 expression in CD3 positive T-cells” value in the assay with CD4+ T-cells [1] (activated only 31.64%) was 80.46%. In addition, the “CD69 expression in CD3 positive T-cells” value in the assay on CD4+ T-cells [1] (activated only 33.87%) is on record as 70.57%. In the assay with CD4+ T-cells [2] (setting [5]), the “level of transcription of Gli1 vs media only activated cultures” value is “No difference” and the “level of transcription of ptc vs media only activated cultures” value was “No difference”. Further, the “transcription of Shh vs media only activated cultures” value with CD4+ T-cells [2] (Shh peptide at t=0, 24 hr) was “significantly reduced”. Further, the “transcription of bcl-2 vs media only activated cultures” value in the assay with CD4+ T-cells [2] (Shh peptide at t=0, 72 hr) is reported as “significantly increased”. Moreover, in the assay with CD4+ T-cells [2] (in presence of exogenous Shh), the “Bcl-2 transcripts, time course normalised to 24 hr sample” value is “increased at 48 hr and at 72 hr”; the “Gli1 transcription, time course normalised to 24 hr sample” value was “increased at 48 hr and was maintained at 72 hr”; the “Shh transcription, time course normalised to 24 hr sample” value is “increased both at 48 hr and 72 hr”. Moreover, the “ptc transcription, time course normalised to 24 hr sample” value in the assay on CD4+ T-cells [2] (in presence of exogenous Shh, 72 hr) is “marginally higher”. In addition, the survival in culture result in assay [3] is “enhances their survival”. In the assay with CD4+ T-cells [4] (setting [6]), the Hip expression result is on record as “up-regulated” and the Ihh expression result is “down-”. In addition, the “effect on Ptc downregulation” value in the assay with CD4+ T-cells [4] (activated T-cells, Shh addition) is given as “does not appear to affect”. Further, the “Shh mRNA expression” value in the assay on CD4+ T-cells [4] (activated T-cells, Shh addition, 24 hours, 40 cycles of PCR (limit of assay)) was “no signal is detected”. Also, the “incorporation of 3H-thymidine” value in the assay on human CD4 T-cells was “significantly enhances”.
